Data: US8530404B2, “Compounds and methods for treatment of cancer” (FibroGen, Inc., priority 2005, dated 2013)

Columns and labels:
[1] = test system: HCT116-GFP colon tumors; experiment: Orthotopically implanted human HCT116-GFP colon tumor mouse xenograft (Example 4); type: in vivo
Description: Procedures were carried out as described above for Example 3, except that the tumors of GFP-transfected H-460 cells were replaced with HCT116-GFP colon tumors, and surgical orthotopic implantation was directly into colon tissue.
The HCT116 tumor model used here is a well-characterized representative colon xenograft model. The isolation of the human HCT116 tumor cell line from a human colon carcinoma has been described. (Brattain et al (1981) Cancer Res 41:1751-1756.) To aid in the detection of tumors and metastases, HCT116 cells were transduced with genes directing the expression of fluorescent proteins (e.g., HCT116-GFP). The use of fluorescent HCT116-derived tumors in similar studies has been described previously. (Ross et al (2000) Nat Genet 24:227-235.)
HCT116-GFP tumor fragments harvested from the stock animals were transplanted into animals by surgical orthotopic implantation (SOI) as follows. The animals were anesthetized with isoflurane and the surgical area was sterilized using iodine and alcohol. After proper exposure of the colon following a lower midline abdominal incision, the serosa of the colon was removed and two pieces of 1 mm^3 tumor fragments per mouse were implanted. An 8-0 surgical suture was used to penetrate these small tumor pieces and suture them on the wall of the intestine. The intestine was then returned to the abdominal cavity. The incision in the abdominal wall was closed with a 6-0 surgical suture in one layer. The animals were kept under isoflurane anesthesia during surgery. All procedures of the operation described above were performed under a 7× magnification microscope (Olympus). Animals were kept in a barrier facility under HEPA filtration.
Administration of Compound A or 5-FU (5-Flurouracil) to the animals was initiated three days following tumor transplantation. 5-FU, a chemotherapeutic agent used as a positive control, was administered by intraperitoneal injection (60 mg/kg) at four day intervals for a total of three doses. Compound A was administered at either 20 mg/kg or 60 mg/kg three times per week. Tumor volumes were measured at day 15, day 22, and day 29.

[2] = test system: OVCAR3 ovarian tumors; experiment: Subcutaneous OVCAR3 ovarian tumor xenograft in SCID mice (Example 7); type: in vivo, mouse; conditions: 60 mg/kg; study end (day 29); FIG. 2
Description: The experiment was conducted essentially as described above in Example 3, except that the tumors of GFP-transfected H460 cells were replaced with OVCAR3 ovarian tumors. […] FIG. 2 is a Kruskal-Wallis box plot. The central bar within each box indicates the median value for the group, the limits of the various boxes and whiskers indicate group quartiles within the total distribution of values determined in this study.

[3] = Complete blood counts and reticulocyte analysis in H-460 xenograft mice (Example 1); type: in vivo, mouse; conditions: study end
Description: Sizes of the primary tumors were measured through the skin with calipers once per week. Tumor volumes were calculated by the formula V═(W^2*L)/2. Body weight of the mice in each group was also measured once per week during the experimental period. All animals were sacrificed following thirty-two days of treatment. Primary tumors were excised and weighed on an electronic balance. Blood samples were taken during terminal sacrifice and placed in microhematocrit tubes containing EDTA. Complete Blood Counts (CBC) and reticulocyte analysis were performed with the Cell Dyn 3700 analyzer (Abbott Diagnostics), as described by the manufacturer.

[4] = test system: NDRG1 gene expression; experiment: NDRG1 gene expression in Kelly neuroblastoma cells (Affymetrix microarray); type: cell-based; conditions: 20 μM, 6 hours, vs 0.5% DMSO control
Description: To identify compounds useful in the methods of the present invention, the following studies were performed. The effect of compounds of the present invention on expression of various genes associated with anti-tumor activity (e.g., genes having anti-proliferative activity, genes having pro-apoptotic activity, genes having anti-tumor activity, etc.). In these experiments, the effect of compounds on BNIP3, BNIP3L, NDRG1, CDKN1C, and REDD1/RTP801 gene expression in various types of cultured tumor cells line was examined, including Hep3B cells (human hepatocellular carcinoma), Kelly neuroblastoma cells, and MCF7 cells (human breast cancer)
The effects of various compounds of the present invention on the expression of genes associated with tumor growth and progression were examined in Kelly neuroblastoma cells as follows. Kelly neuroblastoma cells were grown in RPMI media. […]
RNA was isolated from the Kelly neuroblastoma cells using a commercial kit and used for the preparation of cDNA. BNIP3, CDKN1C, and 18S RNA levels were measured using commercial kits (18S, Applied Biosystems cat#4319413E); BNIP3, Applied Biosystems cat#HS00969293 MH). […] Kelly cell NDRG1 and BNIP3L mRNA levels were measured by Affymetrix microarray in a separate study. […]

O=C(O)CNC(=O)c1nc(Cl)c2ccccc2c1O [Compound A, [(1-Chloro-4-hydroxy-isoquinoline-3-carbonyl)-amino]-acetic acid]
mean tumor volume (calipers, mean +/- SD) ([1]; Treatment Day 15, 20 mg/kg three times per week): 39 +/− 27 | mean tumor volume (calipers, mean +/- SD) ([1]; Treatment Day 15, 60 mg/kg three times per week): 24 +/− 23 | mean tumor volume (calipers, mean +/- SD) ([1]; Treatment Day 22, 20 mg/kg three times per week): 67 +/− 49 | mean tumor volume (calipers, mean +/- SD) ([1]; Treatment Day 22, 60 mg/kg three times per week): 45 +/− 38 | mean tumor volume (calipers, mean +/- SD) ([1]; Treatment Day 29, 20 mg/kg three times per week): 197 +/− 158 | mean tumor volume (calipers, mean +/- SD) ([1]; Treatment Day 29, 60 mg/kg three times per week): 152 +/− 125 | reduction of median tumor volume compared to vehicle-treated control [2]: 26%

C[C@H](NC(=O)c1ncc2cc(Oc3ccccc3)ccc2c1O)C(=O)O [Compound B, (S)-2-[(4-Hydroxy-7-phenoxy-isoquinoline-3-carbonyl)-amino]-propionic acid]
Abs Retic (reticulocyte count) ([3]; 6 mg/kg PO): 653 | Baso % ([3]; 6 mg/kg PO): 6.35% | Baso (basophils) ([3]; 6 mg/kg PO): 1840 µL⁻¹ | EOS % ([3]; 6 mg/kg PO): 0.49% | Eos (eosinophil count) ([3]; 6 mg/kg PO): 80 µL⁻¹ | HCT (hematocrit) ([3]; 6 mg/kg PO): 37.7% | HGB (hemoglobin) ([3]; 6 mg/kg PO): 12.7 g/dL | IRF (immature RET fraction) ([3]; 6 mg/kg PO): 0.64 | Lymph % ([3]; 6 mg/kg PO): 18.3% | Lymph (lymphocytes) ([3]; 6 mg/kg PO): 4700 µL⁻¹ | MCH (mean corpuscular hemoglobin) ([3]; 6 mg/kg PO): 14.6 pg | MCHC (MCH concentration) ([3]; 6 mg/kg PO): 33.8 g/dL | MCV (mean corpuscular volume) ([3]; 6 mg/kg PO): 43.2 fL | Mono % ([3]; 6 mg/kg PO): 7.61% | Mono (monocytes) ([3]; 6 mg/kg PO): 2370 µL⁻¹ | Neut % ([3]; 6 mg/kg PO): 67.5% | Neut (neutrophils) ([3]; 6 mg/kg PO): 18400 µL⁻¹ | PLAT (platelets) ([3]; 6 mg/kg PO): 1.536e+06 µL⁻¹ | RBC (red blood cells) ([3]; 6 mg/kg PO): 8.71e+06 µL⁻¹ | RDW (RBC distribution width) ([3]; 6 mg/kg PO): 21.4% | RET (reticulocytes) ([3]; 6 mg/kg PO): 7.5% | WBC (white blood cells) ([3]; 6 mg/kg PO): 27300 µL⁻¹ | Abs Retic (reticulocyte count) ([3]; 20 mg/kg PO): 552 | Baso % ([3]; 20 mg/kg PO): 4.52% | Baso (basophils) ([3]; 20 mg/kg PO): 780 µL⁻¹ | EOS % ([3]; 20 mg/kg PO): 0.44% | Eos (eosinophil count) ([3]; 20 mg/kg PO): 70 µL⁻¹ | HCT (hematocrit) ([3]; 20 mg/kg PO): 37.7% | HGB (hemoglobin) ([3]; 20 mg/kg PO): 12.7 g/dL | IRF (immature RET fraction) ([3]; 20 mg/kg PO): 0.56 | Lymph % ([3]; 20 mg/kg PO): 14.6% | Lymph (lymphocytes) ([3]; 20 mg/kg PO): 2700 µL⁻¹ | MCH (mean corpuscular hemoglobin) ([3]; 20 mg/kg PO): 14.5 pg | MCHC (MCH concentration) ([3]; 20 mg/kg PO): 33.7 g/dL | MCV (mean corpuscular volume) ([3]; 20 mg/kg PO): 43.0 fL | Mono % ([3]; 20 mg/kg PO): 4.88% | Mono (monocytes) ([3]; 20 mg/kg PO): 850 µL⁻¹ | Neut % ([3]; 20 mg/kg PO): 75.6% | Neut (neutrophils) ([3]; 20 mg/kg PO): 16500 µL⁻¹ | PLAT (platelets) ([3]; 20 mg/kg PO): 1.767e+06 µL⁻¹ | RBC (red blood cells) ([3]; 20 mg/kg PO): 8.78e+06 µL⁻¹ | RDW (RBC distribution width) ([3]; 20 mg/kg PO): 21.7% | RET (reticulocytes) ([3]; 20 mg/kg PO): 6.3% | WBC (white blood cells) ([3]; 20 mg/kg PO): 20800 µL⁻¹

COc1ccc(Oc2ccc3c(O)c(C(=O)NCC(=O)O)ncc3c2)cc1 [Compound C, {[4-Hydroxy-7-(4-methoxy-phenoxy)-isoquinoline-3-carbonyl]-amino}-acetic acid]
Abs Retic (reticulocyte count) ([3]; 20 mg/kg PO): 457 | Baso % ([3]; 20 mg/kg PO): 1.47% | Baso (basophils) ([3]; 20 mg/kg PO): 150 µL⁻¹ | EOS % ([3]; 20 mg/kg PO): 0.47% | Eos (eosinophil count) ([3]; 20 mg/kg PO): 40 µL⁻¹ | HCT (hematocrit) ([3]; 20 mg/kg PO): 41.1% | HGB (hemoglobin) ([3]; 20 mg/kg PO): 14.0 g/dL | IRF (immature RET fraction) ([3]; 20 mg/kg PO): 0.56 | Lymph % ([3]; 20 mg/kg PO): 25.2% | Lymph (lymphocytes) ([3]; 20 mg/kg PO): 3000 µL⁻¹ | MCH (mean corpuscular hemoglobin) ([3]; 20 mg/kg PO): 14.9 pg | MCHC (MCH concentration) ([3]; 20 mg/kg PO): 34.1 g/dL | MCV (mean corpuscular volume) ([3]; 20 mg/kg PO): 43.8 fL | Mono % ([3]; 20 mg/kg PO): 2.67% | Mono (monocytes) ([3]; 20 mg/kg PO): 320 µL⁻¹ | Neut % ([3]; 20 mg/kg PO): 70.2% | Neut (neutrophils) ([3]; 20 mg/kg PO): 11400 µL⁻¹ | PLAT (platelets) ([3]; 20 mg/kg PO): 1.707e+06 µL⁻¹ | RBC (red blood cells) ([3]; 20 mg/kg PO): 9.36e+06 µL⁻¹ | RDW (RBC distribution width) ([3]; 20 mg/kg PO): 22.3% | RET (reticulocytes) ([3]; 20 mg/kg PO): 4.9% | WBC (white blood cells) ([3]; 20 mg/kg PO): 14900 µL⁻¹ | fold-increase in NDRG1 mRNA expression [4]: 7.3 fold

Cc1nc(C(=O)NCC(=O)O)c(O)c2ccc(Oc3ccccc3)cc12 [Compound D, [(4-Hydroxy-1-methyl-7-phenoxy-isoquinoline-3-carbonyl)-amino]-acetic acid]
reduction of median tumor volume compared to vehicle-treated control [2]: 5%
